In patent US20180201647A1, “Peptoid” (The University of Durham, priority 2015, published 2018):
pIC50: −log10 of the molar value. Like-named read-outs stand apart in the source and are kept apart here. *1 amine or outer side, *2 acyl side, *3 side chain or, on linkers, in order; H or OH if unused. Where a SMILES comes first, the peptide text is derived from it. [ ]: non-standard residue; d: D form. Gly(N-2-aminoethyl) = NCCNCC(=O)O; X1 = N=C(N)NCCN(CC(=O)[*:2])[*:1]; Nspe = C[C@H](NCC(=O)O)c1ccccc1

Key:
Format in all cases: cell-based
[1] = system: T. cruzi Tulahuen strain C2C4; experiment: microbe, parasite or virus in culture
Method: Rat skeletal myoblasts (L-6 cells) were seeded in 96-well microtitre plates at 2000 cells/well in 100 μL RPMI 1640 medium with 10% FBS and 2 mM 1-glutamine. After 24 h the medium was removed and replaced by 100 μl per well containing 5000 trypomastigote forms of T. cruzi Tulahuen strain C2C4 containing the β-galactosidase (Lac Z) gene. After 48 h the medium was removed from the wells and replaced by 100 μl fresh medium with or without a serial drug dilution of eleven 3-fold dilution steps covering a range from 100 to 0.002 μg/ml. After 96 h of incubation the plates were inspected under an inverted microscope to assure growth of the controls and sterility. Then the substrate CPRG/Nonidet (50 μl) was added to all wells. A color reaction developed within 2-6 h and could be read photometrically at 540 nm. Data were analyzed with the graphic programme Softmax Pro (Molecular Devices), which calculated IC50 values by linear regression from the sigmoidal dose inhibition curves. Benznidazole is used as control (IC50 0.5+0.2 μg/ml).

[2] = system: erythrocytic stages of P. falciparum
Method: In vitro activity against erythrocytic stages of P. falciparum was determined using a 3H-hypoxanthine incorporation assay using the drug sensitive NF54 strain (Schipol airport) or the chloroquine and pyrimethamine resistant K1 strain that originate from Thailand and the standard drug chloroquine (Sigma C6628). Compounds were dissolved in DMSO at 10 mg/ml and added to parasite cultures incubated in RPMI 1640 medium without hypoxanthine, supplemented with HEPES (5.94 g/l), NaHCO3 (2.1 g/1), neomycin (100 U/ml), Albumax® (5 g/l) and washed human red cells A^+ at 2.5% haematocrit (0.3% parasitaemia). Serial drug dilutions of eleven 3-fold dilution steps covering a range from 100 to 0.002 μg/ml were prepared. The 96-well plates were incubated in a humidified atmosphere at 37° C.; 4% CO2, 3% O2, 93% N2. After 48 h 50 μl of 3H-hypoxanthine (=0.5 μCi) was added to each well of the plate. The plates were incubated for a further 24 h under the same conditions. The plates were then harvested with a Betaplate™ cell harvester (Wallac, Zurich, Switzerland), and the red blood cells transferred onto a glass fibre filter then washed with distilled water. The dried filters were inserted into a plastic foil with 10 ml of scintillation fluid, and counted in a Betaplate™ liquid scintillation counter (Wallac, Zurich, Switzerland). IC50 values were calculated from sigmoidal inhibition curves by linear regression using Microsoft Excel. Chloroquine and artemisinin are used as control.

[3] = system: L. donovani strain MHOM/ET/67/L82 axenic amastigotes
Method: Amastigotes of L. donovani strain MHOM/ET/67/L82 were grown in axenic culture at 37° C. in SM medium^24 at pH 5.4 supplemented with 10% heat-inactivated fetal bovine serum under an atmosphere of 5% CO2 in air. One hundred microlitres of culture medium with 10^5 amastigotes from axenic culture with or without a serial drug dilution were seeded in 96-well microtitre plates. Serial drug dilutions of eleven 3-fold dilution steps covering a range from 90 to 0.002 μg/ml were prepared. After 70 h of incubation the plates were inspected under an inverted microscope to assure growth of the controls and sterile conditions. 10 μl of Alamar Blue (12.5 mg resazurin dissolved in 100 ml distilled water) were then added to each well and the plates incubated for another 2 h. Then the plates were read with a Spectramax Gemini XS microplate fluorometer (Molecular Devices Cooperation, Sunnyvale, Calif., USA) using an excitation wave length of 536 nm and an emission wave length of 588 nm. Data were analyzed using the software Softmax Pro (Molecular Devices Cooperation, Sunnyvale, Calif., USA). Decrease of fluorescence (=inhibition) was expressed as percentage of the fluorescence of control cultures and plotted against the drug concentrations. From the sigmoidal inhibition curves the IC50 values were calculated.

[4] = system: Trypanosoma brucei rhodesiense STIB900
Method: This stock was isolated in 1982 from a human patient in Tanzania and after several mouse passages cloned and adapted to axenic culture conditions. Minimum Essential Medium (50 μl) supplemented with 25 mM HEPES, 1 g/l additional glucose, 1% MEM non-essential amino acids (100×), 0.2 mM 2-mercaptoethanol, 1 mM Na-pyruvate and 15% heat inactivated horse serum was added to each well of a 96-well microtiter plate. Serial drug dilutions of eleven 3-fold dilution steps covering a range from 100 to 0.002 μg/ml were prepared. Then 4×10^3 bloodstream forms of T. b. rhodesiense STIB 900 in 50 μl was added to each well and the plate incubated at 37° C. under a 5% CO2 atmosphere for 70 h. 10 μl Alamar Blue (resazurin, 12.5 mg in 100 ml double-distilled water) was then added to each well and incubation continued for a further 2-4 h. Then the plates were read with a Spectramax Gemini XS microplate fluorometer (Molecular Devices Cooperation, Sunnyvale, Calif., USA) using an excitation wave length of 536 nm and an emission wave length of 588 nm. The IC50 values were calculated by linear regression from the sigmoidal dose inhibition curves using SoftmaxPro software (Molecular Devices Cooperation, Sunnyvale, Calif., USA). Melarsoprol (Arsobal Sanofi-Aventis, received from WHO) is used as control.

| Compound | IC50 ([1]; Trypanosoma cruzi, TULAHUEN, L6, control drug, in L-6 cells, 96 h, read-out: IC50 T. cruzi, control) [µg/mL] | active against P. falciparum ([2]; statement in words) | pIC50 ([2]; strain (NF54 or K1) not given) | active against L. donovani ([3]; statement in words) | pIC50 ([3]; strain MHOM/ET/67/L82 axenic amastigotes, 70 h) | pIC50 ([4]; 70 h) | active against T. brucei rhodesiense ([4]; statement in words) | pIC50 ([1]; in L-6 cells, 96 h, read-out: IC50 T. cruzi) | active against T. cruzi ([1]; statement in words) |
| --- | --- | --- | --- | --- | --- | --- | --- | --- | --- |
| O=C(Cn1ccnc1[N+](=O)[O-])NCc1ccccc1 [Benznidazole, reference compound] | 0.5 | – | – | – | – | – | – | – | – |
| C[C@@H](c1ccccc1)N(CC(N)=O)C(=O)CN(C(=O)CN(CCN)C(=O)CN(C(=O)CN(C(=O)CN(CCNC(=N)N)C(=O)CN(C(=O)CN(C(=O)CN(CCN)C(=O)CN(C(=O)CN(C(=O)CNCCNC(=N)N)[C@@H](C)c1ccccc1)[C@@H](C)c1ccccc1)[C@@H](C)c1ccccc1)[C@@H](C)c1ccccc1)[C@@H](C)c1ccccc1)[C@@H](C)c1ccccc1)[C@@H](C)c1ccccc1 [Peptoid 6, [(NnArgNspeNspe)(NaeNspeNspe)]2] (H-[X1][Nspe][Nspe][Gly(N-2-aminoethyl)][Nspe][Nspe][X1][Nspe][Nspe][Gly(N-2-aminoethyl)][Nspe][Nspe]-NH2; N-terminus assumed) | – | active | 6.00 | active | 5.02 | 5.19 | active | 5.18 | active |
